# Test results as given in PubChem BioAssay AID248 (DTP/NCI, 2004).
# “And” between values parts separate entries of the source, which are not always exact repeats. Equal entries are not always repeated. Inconclusive results and toxic doses are left out. Square brackets hold non-standard residues; d marks the D form. Peptide text beside a SMILES is read from it. ξ: configuration not given here. ξV = CC(C)C(N)C(=O)O
# System: L1210 leukemia ip in BDF1 mice, survival T/C
# Assay: NCI In Vivo Anticancer Drug Screen. Data for tumor model L1210 Leukemia (intraperitoneal) in B6D2F1 (BDF1) mice
# Settings: endpoint: mean survival time, higher = longer survival
# How it was run: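 Transplantable tumor model; survival measured in treated vs vehicle control mice. Value = treated/control.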
# [1] = dose: 50.0 mg/kg/injection, schedule: Q01DX009 (ip), vehicle: saline with Tween-80
# [2] = dose: 100.0 mg/kg/injection, schedule: Q01DX009 (ip), vehicle: saline with Tween-80
# [3] = dose: 100.0 mg/kg/injection, schedule: Q04DX003 (ip), vehicle: saline with Tween-80
# [4] = dose: 200.0 mg/kg/injection, schedule: Q01DX009 (ip), vehicle: saline with Tween-80
# [5] = dose: 200.0 mg/kg/injection, schedule: Q04DX003 (ip), vehicle: saline with Tween-80
# [6] = dose: 100.0 mg/kg/injection, schedule: Q01DX001 (ip), vehicle: Klucel (hydroxypropylcellulose) (HPC)
# [7] = dose: 200.0 mg/kg/injection, schedule: Q01DX001 (ip), vehicle: Klucel (hydroxypropylcellulose) (HPC)
# [8] = dose: 100.0 mg/kg/injection, schedule: Q01DX009 (ip), vehicle: saline
# [9] = dose: 200.0 mg/kg/injection, schedule: Q01DX009 (ip), vehicle: saline
# [10] = dose: 400.0 mg/kg/injection, schedule: Q01DX009 (ip), vehicle: saline
# [11] = dose: 400.0 mg/kg/injection, schedule: Q04DX003 (ip), vehicle: saline with Tween-80
# [12] = dose: 50.0 mg/kg/injection, schedule: Q01DX009 (ip), vehicle: water
# [13] = dose: 100.0 mg/kg/injection, schedule: Q01DX009 (ip), vehicle: water
# [14] = dose: 200.0 mg/kg/injection, schedule: Q01DX009 (ip), vehicle: water
# [15] = dose: 50.0 mg/kg/injection, schedule: Q04DX003 (ip), vehicle: saline
# [16] = dose: 100.0 mg/kg/injection, schedule: Q04DX003 (ip), vehicle: saline
# [17] = dose: 100.0 mg/kg/injection, schedule: Q01DX009 (ip), vehicle: Klucel (hydroxypropylcellulose) (HPC)
# [18] = dose: 200.0 mg/kg/injection, schedule: Q01DX009 (ip), vehicle: Klucel (hydroxypropylcellulose) (HPC)
# [19] = dose: 400.0 mg/kg/injection, schedule: Q01DX009 (ip), vehicle: Klucel (hydroxypropylcellulose) (HPC)
# [20] = dose: 200.0 mg/kg/injection, schedule: Q04DX003 (ip), vehicle: saline
# [21] = dose: 400.0 mg/kg/injection, schedule: Q04DX003 (ip), vehicle: saline
# [22] = dose: 100.0 mg/kg/injection, schedule: Q04DX003 (ip), vehicle: Klucel (hydroxypropylcellulose) (HPC)
# [23] = dose: 200.0 mg/kg/injection, schedule: Q04DX003 (ip), vehicle: Klucel (hydroxypropylcellulose) (HPC)
# [24] = dose: 400.0 mg/kg/injection, schedule: Q04DX003 (ip), vehicle: Klucel (hydroxypropylcellulose) (HPC)
# [25] = dose: 50.0 mg/kg/injection, schedule: Q01DX001 (ip), vehicle: saline
# [26] = dose: 100.0 mg/kg/injection, schedule: Q01DX001 (ip), vehicle: saline
# [27] = dose: 200.0 mg/kg/injection, schedule: Q01DX001 (ip), vehicle: saline
# [28] = dose: 400.0 mg/kg/injection, schedule: Q01DX001 (ip), vehicle: saline
smiles,measurement,setting,value
OC(c1ccccc1)(c1ccccc1)c1ccccc1,T/C,"dose: 9.0 mg/kg/injection, schedule: Q01DX015 (ip), vehicle: saline",95 % of control
same,T/C,"dose: 18.0 mg/kg/injection, schedule: Q01DX015 (ip), vehicle: saline",101 % of control
same,T/C,"dose: 36.0 mg/kg/injection, schedule: Q01DX015 (ip), vehicle: saline",98 % of control
same,T/C,"dose: 50.0 mg/kg/injection, schedule: Q04DX002 (ip), vehicle: Klucel (hydroxypropylcellulose) (HPC)",97 % of control
same,T/C,"dose: 72.0 mg/kg/injection, schedule: Q01DX015 (ip), vehicle: saline",98 % of control
same,T/C,"dose: 100.0 mg/kg/injection, schedule: Q04DX002 (ip), vehicle: Klucel (hydroxypropylcellulose) (HPC)",95 % of control and 103 % of control
same,T/C,"dose: 100.0 mg/kg/injection, schedule: Q04DX002 (ip), vehicle: other",95 % of control
same,T/C,"dose: 143.0 mg/kg/injection, schedule: Q01DX015 (ip), vehicle: saline",91 % of control
same,T/C,"dose: 200.0 mg/kg/injection, schedule: Q04DX002 (ip), vehicle: Klucel (hydroxypropylcellulose) (HPC)",94 % of control
same,T/C,"dose: 200.0 mg/kg/injection, schedule: Q04DX002 (ip), vehicle: other",95 % of control
same,T/C,"dose: 286.0 mg/kg/injection, schedule: Q01DX015 (ip), vehicle: saline",89 % of control
same,T/C,"dose: 400.0 mg/kg/injection, schedule: Q04DX002 (ip), vehicle: Klucel (hydroxypropylcellulose) (HPC)",103 % of control and 88 % of control
same,T/C,"dose: 400.0 mg/kg/injection, schedule: Q04DX002 (ip), vehicle: other",92 % of control
same,T/C,"dose: 572.0 mg/kg/injection, schedule: Q01DX015 (ip), vehicle: saline",98 % of control
c1cc2c3c(c1)/C(=N\N=C1/CCN4CCCc5cccc1c54)CCN3CCC2,T/C,[1],91 % of control
same,T/C,[2],89 % of control
same,T/C,[3],92 % of control
same,T/C,[4],92 % of control
same,T/C,[5],89 % of control
CCCCN=C=NCCCC,T/C,"dose: 0.05 mg/kg/injection, schedule: Q01DX Z (ip), vehicle: saline",96 % of control
same,T/C,"dose: 0.08 mg/kg/injection, schedule: Q01DX Z (ip), vehicle: saline",90 % of control
same,T/C,"dose: 0.12 mg/kg/injection, schedule: Q01DX Z (ip), vehicle: saline",104 % of control
same,T/C,[6],93 % of control
same,T/C,[7],93 % of control
Nc1nc[nH]c(=O)c1NC=O,T/C,[8],94 % of control
same,T/C,[3],97 % of control
same,T/C,[9],100 % of control
same,T/C,[5],98 % of control
same,T/C,[10],104 % of control
same,T/C,[11],101 % of control
CCOC(=O)Nc1cncc(NC(=O)OCC)n1,T/C,"dose: 6.25 mg/kg/injection, schedule: Q01DX009 (ip), vehicle: water",96 % of control
same,T/C,"dose: 12.5 mg/kg/injection, schedule: Q01DX009 (ip), vehicle: water",90 % of control
same,T/C,"dose: 25.0 mg/kg/injection, schedule: Q01DX009 (ip), vehicle: water",117 % of control and 91 % of control
same,T/C,[12],93 % of control and 91 % of control
same,T/C,[13],96 % of control and 101 % of control
same,T/C,[14],111 % of control
COc1cccc2c(=O)cc(C)[nH]c12,T/C,[12],104 % of control
same,T/C,[13],102 % of control
same,T/C,"dose: 100.0 mg/kg/injection, schedule: Q04DX003 (ip), vehicle: water",101 % of control
same,T/C,[14],109 % of control
same,T/C,"dose: 200.0 mg/kg/injection, schedule: Q04DX003 (ip), vehicle: water",96 % of control
same,T/C,"dose: 400.0 mg/kg/injection, schedule: Q01DX009 (ip), vehicle: water",105 % of control
same,T/C,"dose: 400.0 mg/kg/injection, schedule: Q04DX003 (ip), vehicle: water",108 % of control
CCCCCNC(C)C(=O)c1ccccc1 (stereo unspecified),T/C,"dose: 12.5 mg/kg/injection, schedule: Q04DX003 (ip), vehicle: saline",87 % of control
same,T/C,"dose: 25.0 mg/kg/injection, schedule: Q01DX009 (ip), vehicle: saline",92 % of control
same,T/C,"dose: 25.0 mg/kg/injection, schedule: Q04DX003 (ip), vehicle: saline",94 % of control
same,T/C,"dose: 50.0 mg/kg/injection, schedule: Q01DX009 (ip), vehicle: saline",100 % of control
same,T/C,[15],94 % of control
same,T/C,[16],97 % of control
O=C(Nc1cccc(C2=NCCN2)c1)c1cccc2c(C(=O)Nc3cccc(C4=NCCN4)c3)cccc12,T/C,"dose: 15.0 mg/kg/injection, schedule: Q01DX Z (ip), vehicle: carboxymethylcellulose (CMC)",86 % of control
COC(=O)c1cc(NC(=O)Nc2ccc(F)c([N+](=O)[O-])c2)cc(C(=O)OC)c1,T/C,[17],95 % of control
same,T/C,[18],93 % of control
same,T/C,[19],96 % of control
CC[N+]1(CC)CCOC(=O)C1,T/C,[8],95 % of control
same,T/C,[16],109 % of control
same,T/C,[9],93 % of control
same,T/C,[20],101 % of control
same,T/C,[10],94 % of control
same,T/C,[21],101 % of control
S=c1[nH]nc2ccccn12,T/C,[22],100 % of control
same,T/C,[23],94 % of control
same,T/C,[24],94 % of control
O=C1CC2CCC1C2Cl (stereo unspecified),T/C,"dose: 50.0 mg/kg/injection, schedule: Q04DX003 (ip), vehicle: saline with Tween-80",86 % of control
same,T/C,"dose: 100.0 mg/kg/injection, schedule: Q01DX001 (ip), vehicle: saline with Tween-80",97 % of control
same,T/C,"dose: 200.0 mg/kg/injection, schedule: Q01DX001 (ip), vehicle: saline with Tween-80",89 % of control
COC1OC2COc3ccccc3OC2C(N=Cc2ccccc2)C1O (stereo unspecified),T/C,[3],102 % of control
same,T/C,[5],102 % of control
same,T/C,[11],98 % of control
COc1ccc2c(c1)Cc1c-2nc2ccccc2c1Cl,T/C,[25],101 % of control
same,T/C,[26],93 % of control
same,T/C,[27],96 % of control
same,T/C,[28],100 % of control
Nc1nc2c(nnn2C2CC(O)C(COP(=O)(O)O)O2)c(=O)[nH]1 (stereo unspecified),T/C,[6],96 % of control
same,T/C,[7],91 % of control
same,T/C,"dose: 400.0 mg/kg/injection, schedule: Q01DX001 (ip), vehicle: Klucel (hydroxypropylcellulose) (HPC)",94 % of control
C[PH+](c1ccccc1)c1ccccc1.C[PH+](c1ccccc1)c1ccccc1.O=C([S-])[S-].[Pd+2],T/C,[15],100 % of control
same,T/C,[16],100 % of control
same,T/C,[20],94 % of control
O=C(Cc1ccccc1)OCC#CC#CCOC(=O)Cc1ccccc1,T/C,[17],103 % of control
same,T/C,[22],92 % of control
same,T/C,[18],98 % of control
same,T/C,[23],91 % of control
same,T/C,[19],97 % of control
same,T/C,[24],92 % of control
CC(C)C(NC(=O)CNC(=O)CN)C(=O)O (stereo not drawn) (H-Gly-Gly-[ξV]-OH),T/C,[8],104 % of control
same,T/C,[16],106 % of control
same,T/C,[9],102 % of control
same,T/C,[20],103 % of control
same,T/C,[10],102 % of control
same,T/C,[21],106 % of control
CCN(CC)CCC(=O)OC(c1ccccc1)C1(O)CCSC1 (stereo unspecified),T/C,[22],106 % of control
same,T/C,[23],96 % of control
O=C1CC(C(=O)O)C(C(=O)O)C1 (stereo unspecified),T/C,[26],91 % of control
same,T/C,[27],91 % of control
O=C(Cc1ccc2ccccc2c1)c1c[nH]c2ccccc12,T/C,[25],102 % of control
same,T/C,[26],102 % of control
same,T/C,[27],98 % of control
same,T/C,[28],93 % of control
Nc1ccc(/C=C\C(=O)NCc2cccnc2)cc1,T/C,"dose: 25.0 mg/kg/injection, schedule: Q01DX009 (ip), vehicle: saline with Tween-80",109 % of control
same,T/C,[1],102 % of control
same,T/C,[2],93 % of control and 90 % of control
COc1ccc(-n2c(=O)c(N=Nc3ccccc3C)c(O)n(-c3ccccc3OC)c2=S)cc1,T/C,"dose: 75.0 mg/kg/injection, schedule: Q01DX001 (ip), vehicle: Klucel (hydroxypropylcellulose) (HPC)",97 % of control
same,T/C,"dose: 150.0 mg/kg/injection, schedule: Q01DX001 (ip), vehicle: Klucel (hydroxypropylcellulose) (HPC)",92 % of control
CC1CSCC(C)O1 (stereo unspecified),T/C,[1],95 % of control
same,T/C,[2],284 % of control
same,T/C,[4],95 % of control
